Results reported in patent publication US8497274B2, “Heterocyclic compound and use thereof” (Takeda Pharmaceutical Company Limited, priority 2008, dated 2013).

Experiments:
BRAF (V600E) kinase = BRAF (V600E) kinase (Homo sapiens (Human), UniProt P15056, V600E); test: BRAF (V600E) kinase inhibitory activity; assay type: biochemical; settings: BRAF (V600E) enzyme, GSTP1-MEK1 (K96R) substrate, compound 1.0 μM; read-out: Inhibitory rate (%) at 1.0 μM
Method: A test compound (2.5 μL) dissolved in dimethyl sulfoxide (DMSO) was added to 37.5 μL of a reaction solution (25 mM HEPES (pH 7.5), 10 mM magnesium acetate, 1 mM dithiothreitol) containing 30 ng of BRAF (V600E) enzyme and 250 ng of recombinant protein GSTP1-MEK1 (K96R) prepared using FreeStyle 293 expression system (Invitrogen), and the mixture was incubated at room temperature for 10 min. 10 μL of ATP solution (2.5 μM ATP, 0.1 μCi [γ-^32P]ATP) was added to the obtained mixture, and the mixture was reacted at room temperature for 20 min. The reaction was quenched by adding 50 μL of ice-cooled 20% trichloroacetic acid (Wako Pure Chemical Industries, Ltd.) to the reaction solution. The reaction solution was allowed to stand at 4° C. for 30 min., and the acid-precipitable fraction was transferred to GF/C filter plate (Millipore Corporation) using cell harvester (PerkinElmer). The plate was dried at 45° C. for 60 min., and 40 μL of MicroScinti 0 (PerkinElmer) was added thereto. The radioactivity was measured using TopCount (PerkinElmer). The kinase inhibitory rate (%) of the test compound was calculated by the following formula: Inhibitory rate (%)=(1−(count of test compound−blank)÷(control−blank))×100
The count of the solution reacted without addition of the compound was used as a “control”, and the count of the solution without the compound and enzyme was used as a “blank”.

[1] = tested on: MEK1/2 phosphorylation in human colon cancer cell HT-29; test: Colon cancer cell HT-29 intracellular MEK phosphorylation inhibitory activity in vitro; assay type: cell-based; settings: HT-29 cells; for IC50: 2 hrs treatment, phosphorylated MEK1/2 Western blot; for inhibition at 0.5 µM: MEK1/2 protein phosphorylation, compound 0.5 μM, read-out: Inhibitory rate (%) at 0.5 μM
Method: 500 μL of a cell suspension of human colon cancer cell HT-29 (purchased from American Type Culture Collection (ATCC)) was plated in a 48-well plate (100,000 cells/well), and the cells were cultured overnight at 37° C. in the presence of 5% CO2, treated with a test compound (250 μL/well) diluted in 3-fold dilution series and cultured for 2 hrs. After 2 hrs, the culture medium containing the test compound was removed, and the cells were lysed with SDS sample buffer (100 μL/well) and heated at 95° C. for 5 min. Thereafter, the cells lysed with SDS sample buffer were applied to SDS-PAGE, and the protein was transferred onto Sequi-Blot™ PVDF Membrane (Bio-Rad) by the Western blot method. The PDVF membrane was blocked with a Block-Ace solution (Snow Brand Milk Products Co., Ltd) dissolved in phosphate buffered saline (MP Biochemicals) to 5% W/V, and reacted overnight with anti-phosphorylated MEK1/2 (Ser217/221) (Cell signaling #9121) diluted 1000-fold with phosphate buffered saline containing 0.4% Block-Ace. The membrane was washed with phosphate buffered saline containing 0.1% Tween 20 (Wako Pure Chemical Industries, Ltd.), and reacted at room temperature for 1 hr with HRP labeled rabbit IgG polyclonal antibody (Cell signaling #7074) diluted 1000-fold with phosphate buffered saline containing 0.4% Block-Ace. The membrane was washed in the same manner as above, chemical luminescence of a phosphorylated MEK1/2 protein labeled with the antibody, which was caused by ECL-plus Detection Reagent (Amersham bioscience), was detected by Luminescent Image Analyzer LAS-1000 (FUJIFILM Corporation). Taking the luminescence of the control group free of the test compound as 100%, the concentration (IC50 value) of the compound necessary for inhibiting the residual luminescence to 50% of the control group was calculated. In addition, MEK1/2 protein phosphorylation inhibitory rate (%) of the test compound at compound concentration 0.5 μM was calculated by the following formula. The results are shown in Table 2-B. Inhibitory rate (%)=(1−(luminescence of test compound−blank)÷(luminescence of control group−blank))×100

[2] = tested on: human colon cancer cell HT-29; test: Colon cancer cell HT-29 growth suppressive activity in vitro; assay type: cell-based; settings: for IC50: 72 h, HT-29 cells, 3 days culture, SRB staining; for inhibition at 10 µM: HT-29 cell proliferation, compound 10 μM, read-out: Inhibitory rate (%) at 10 μM
Method: 100 μL of a cell suspension (3,000 cells/well) of human colon cancer cell HT-29 (purchased from ATCC) was plated in a 96-well plate, and the cells were cultured at 37° C. in the presence of 5% CO2. The next day, 100 μL of culture medium containing each test compound diluted in 2-fold dilution was added, and the cells were cultured for 3 days. The culture medium containing the test compound was removed, and the cells were washed with phosphate buffered saline (MP Biochemicals). A 50% trichloroacetic acid solution was added to the final concentration of 10% (v/v), and the mixture was stood overnight at 4° C., whereby the cells were fixed to the plate. Then, a dye SRB 0.4% (w/v) solution (dissolved in 1% acetic acid) was added at 50 μl/well, whereby the cell protein was fixed and stained (Skehan et al., Journal Of National Cancer Institute, vol. 82, pp. 1107-1112, 1990). The cells were washed 3 times with 1% acetic acid solution (200 μL/well), and 100 μL of an extract (10 mM Tris buffer) was added to extract the dye. The absorbance at an absorption wavelength 550 nm was measured, and cell amount was measured as a protein amount. Taking the protein amount of the control group free of the test compound solution as 100%, the proportion of the residual protein amount of each treatment group was determined and the concentration of the compound necessary for suppressing the residual cell amount to 50% of the control (IC50 value) was calculated. In addition, cell proliferation inhibitory rate (%) of the test compound at compound concentration 10 μM was calculated by the following formula. The results are shown in Table 3-B. Inhibitory rate (%)=(1−(absorbance of test compound−blank)÷(absorbance of control group−blank))×100

BRAF (V600E) kinase, sequence (P15056 457-717 V600E): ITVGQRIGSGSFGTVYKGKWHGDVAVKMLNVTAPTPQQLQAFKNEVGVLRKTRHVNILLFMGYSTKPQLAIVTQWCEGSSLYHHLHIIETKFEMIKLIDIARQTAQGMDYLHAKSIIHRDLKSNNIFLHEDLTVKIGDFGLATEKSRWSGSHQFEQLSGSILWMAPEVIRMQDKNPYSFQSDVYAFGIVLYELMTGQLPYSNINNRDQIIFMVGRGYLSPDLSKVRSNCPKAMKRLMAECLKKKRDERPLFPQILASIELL

Row | Compound | inhibition at 1 µM (BRAF (V600E) kinase) | IC50 [1] | inhibition at 0.5 µM [1] | also measured
1 | CC(C)(C#N)c1cccc(C(=O)Nc2cccc(Oc3ccc4nc(NC(=O)C5CC5)sc4c3C#N)c2)c1 [Example 1, N-[3-({7-cyano-2-[(cyclopropylcarbonyl)amino]-1,3-benzothiazol-6-yl}oxy)phenyl]-3-(1-cyano-1-methylethyl)benzamide] | 101% |  |  | 
2 | CC(=O)Nc1nc2ccc(Oc3cccc(NC(=O)c4cccc(C(C)(C)C#N)c4)c3)c(C#N)c2s1 [Example 11, N-(3-{[2-(acetylamino)-7-cyano-1,3-benzothiazol-6-yl]oxy}phenyl)-3-(1-cyano-1-methylethyl)benzamide] | 101% |  |  | 
3 | CC(=O)Nc1nc2ccc(Oc3cccc(NC(=O)C(C)(C)c4cccc(Br)c4)c3)c(C#N)c2s1 [Example 13, N-(3-{[2-(acetylamino)-7-cyano-1,3-benzothiazol-6-yl]oxy}phenyl)-2-(3-bromophenyl)-2-methylpropanamide] | 98% |  |  | 
4 | CC(=O)Nc1nc2ccc(Oc3cccc(NC(=O)Nc4ccc(Cl)c(C(F)(F)F)c4)c3)c(C#N)c2s1 [Example 21, N-{6-[3-({[4-chloro-3-(trifluoromethyl)phenyl]carbamoyl}amino)phenoxy]-7-cyano-1,3-benzothiazol-2-yl}acetamide] | 100% |  |  | 
5 | CC(=O)Nc1nc2ccc(Oc3cccc(NC(=O)Nc4ccc(C(C)(C)C)cc4)c3)c(C#N)c2s1 [Example 22, N-[6-(3-{[(4-tert-butylphenyl)carbamoyl]amino}phenoxy)-7-cyano-1,3-benzothiazol-2-yl]acetamide] |  | < 0.3 µM | 83% | 
6 | N#Cc1c(Oc2ccc(F)c(NC(=O)Nc3ccc(C(F)(F)F)cc3)c2)ccc2nc(NC(=O)C3CC3)sc12 [Example 32, N-{7-cyano-6-[4-fluoro-3-({[4-(trifluoromethyl)phenyl]carbamoyl}amino)phenoxy]-1,3-benzothiazol-2-yl}cyclopropanecarboxamide] |  | < 0.3 µM | 83% | 
7 | CC(C)(C#N)c1cccc(C(=O)Nc2cccc(Oc3ccc4nc(NC(=O)C5CC5)sc4c3[N+](=O)[O-])c2)c1 [Example 37, 3-(1-cyano-1-methylethyl)-N-[3-({2-[(cyclopropylcarbonyl)amino]-7-nitro-1,3-benzothiazol-6-yl}oxy)phenyl]benzamide] |  |  |  | IC50 [2]: < 0.5 µM; inhibition at 10 µM [2]: 93%
8 | CC(C)(C#N)c1cccc(C(=O)Nc2cccc(Oc3ccc4nc(NC(=O)C5CC5)sc4c3N)c2)c1 [Example 43, N-[3-({7-amino-2-[(cyclopropylcarbonyl)amino]-1,3-benzothiazol-6-yl}oxy)phenyl]-3-(1-cyano-1-methylethyl)benzamide] |  |  |  | IC50 [2]: < 0.5 µM; inhibition at 10 µM [2]: 100%
9 | CC(C)(C#N)c1cccc(C(=O)Nc2cccc(Oc3ccc4nc(NC(=O)C5CC5)sc4c3Cl)c2)c1 [Example 44, N-[3-({7-chloro-2-[(cyclopropylcarbonyl)amino]-1,3-benzothiazol-6-yl}oxy)phenyl]-3-(1-cyano-1-methylethyl)benzamide] |  |  |  | IC50 [2]: < 0.5 µM; inhibition at 10 µM [2]: 93%
10 | CC(=O)Nc1nc2ccc(Oc3cccc(NC(=O)Cc4cccc(C(F)(F)F)c4)c3)c(C#N)c2s1 [Example 49, N-(3-{[2-(acetylamino)-7-cyano-1,3-benzothiazol-6-yl]oxy}phenyl)-2-[3-(trifluoromethyl)phenyl]acetamide] |  | < 0.3 µM | 63% | 
11 | N#Cc1c(Oc2cccc(NC(=O)Nc3ccc(C(F)(F)F)nc3)c2)ccc2nc(NC(=O)C3CC3)sc12 [Example 51, N-{7-cyano-6-[3-({[6-(trifluoromethyl)pyridin-3-yl]carbamoyl}amino)phenoxy]-1,3-benzothiazol-2-yl}cyclopropanecarboxamide] | 100% |  |  | 
12 | N#Cc1c(Oc2cccc(NC(=O)Nc3ccc(C(F)(F)F)cn3)c2)ccc2nc(NC(=O)C3CC3)sc12 [Example 52, N-{7-cyano-6-[3-({[5-(trifluoromethyl)pyridin-2-yl]carbamoyl}amino)phenoxy]-1,3-benzothiazol-2-yl}cyclopropanecarboxamide] | 98% |  |  | 
13 | COC(=O)c1c(Oc2ccc(F)c(NC(=O)Cc3cccc(C(F)(F)F)c3)c2)ccc2nc(NC(=O)C3CC3)sc12 [Example 54, methyl 2-[(cyclopropylcarbonyl)amino]-6-[4-fluoro-3-({[3-(trifluoromethyl)phenyl]acetyl}amino)phenoxy]-1,3-benzothiazole-7-carboxylate] |  | < 0.3 µM | 100% | 
